Counter-ions that a name gives are not always drawn.
Experiments:
Trypsin = molecular target: T1, Trypsin (Bos taurus, UniProt P00760); assay: biochemical; parameters: species or system Bovine; settings: read-out: Kass Trypsin (converted)
T1 sequence (P00760 24-246): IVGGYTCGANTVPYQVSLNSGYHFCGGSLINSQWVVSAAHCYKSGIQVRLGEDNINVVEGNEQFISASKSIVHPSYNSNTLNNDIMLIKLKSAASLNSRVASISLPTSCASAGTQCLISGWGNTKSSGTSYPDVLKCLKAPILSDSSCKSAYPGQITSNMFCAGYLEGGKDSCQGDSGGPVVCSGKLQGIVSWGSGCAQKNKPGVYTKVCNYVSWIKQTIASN
Outline: (§1)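 Bovine trypsin and human factor Xa amidase activity measured chromogenically, following the human thrombin procedure. Substrates: N-Benzoyl-Ile-Glu-Gly-Arg-p-nitroanilide for factor Xa and N-Benzoyl-Phe-Val-Arg-p-nitroanilide for trypsin. Used for selectivity profiling.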

t-PA = t-PA (Homo sapiens, UniProt P00750); assay: biochemical; settings: read-out: Kass t-PA (converted)
Chain of t-PA (P00750 36-562): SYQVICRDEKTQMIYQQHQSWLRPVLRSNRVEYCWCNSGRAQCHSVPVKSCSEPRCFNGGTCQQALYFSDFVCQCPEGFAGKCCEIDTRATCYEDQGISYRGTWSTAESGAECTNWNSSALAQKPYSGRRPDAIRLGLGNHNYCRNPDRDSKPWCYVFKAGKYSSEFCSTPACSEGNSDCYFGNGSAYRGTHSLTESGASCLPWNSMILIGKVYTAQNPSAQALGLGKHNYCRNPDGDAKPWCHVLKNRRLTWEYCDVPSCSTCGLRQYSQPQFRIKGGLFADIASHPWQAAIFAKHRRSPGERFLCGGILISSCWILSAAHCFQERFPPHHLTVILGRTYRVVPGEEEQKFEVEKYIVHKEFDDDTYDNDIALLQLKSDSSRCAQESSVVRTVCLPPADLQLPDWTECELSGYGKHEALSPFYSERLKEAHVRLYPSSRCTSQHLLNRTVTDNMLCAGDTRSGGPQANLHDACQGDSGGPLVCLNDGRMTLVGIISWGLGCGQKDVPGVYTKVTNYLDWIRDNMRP
Outline: (§2)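 Amidase activity of human plasmin and t-PA (nt-PA single-chain; mt-PA6) was measured by a chromogenic method adapted from a thrombin assay. Substrates were H-D-Val-Leu-Lys-p-nitroanilide for plasmin and H-D-Ile-Pro-Arg-p-nitroanilide for t-PA.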

Plasmin = molecular target: T2, Plasmin (Homo sapiens, UniProt P00747); assay: biochemical; settings: read-out: Kass Plasmin (converted)
T2 construct: Human plasmin is purchased; purchased Boehringer Mannheim, Indianapolis, Indiana
T2 sequence (P00747 581-810 limits assumed): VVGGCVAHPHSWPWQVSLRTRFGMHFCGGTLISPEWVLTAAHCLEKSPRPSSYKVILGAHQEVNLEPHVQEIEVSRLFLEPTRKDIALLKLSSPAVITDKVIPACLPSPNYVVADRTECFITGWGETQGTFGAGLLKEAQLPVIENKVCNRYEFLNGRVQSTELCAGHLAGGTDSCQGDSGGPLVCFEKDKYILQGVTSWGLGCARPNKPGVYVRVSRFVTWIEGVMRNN
T2 sequence (P00747 97-580 partner limits assumed): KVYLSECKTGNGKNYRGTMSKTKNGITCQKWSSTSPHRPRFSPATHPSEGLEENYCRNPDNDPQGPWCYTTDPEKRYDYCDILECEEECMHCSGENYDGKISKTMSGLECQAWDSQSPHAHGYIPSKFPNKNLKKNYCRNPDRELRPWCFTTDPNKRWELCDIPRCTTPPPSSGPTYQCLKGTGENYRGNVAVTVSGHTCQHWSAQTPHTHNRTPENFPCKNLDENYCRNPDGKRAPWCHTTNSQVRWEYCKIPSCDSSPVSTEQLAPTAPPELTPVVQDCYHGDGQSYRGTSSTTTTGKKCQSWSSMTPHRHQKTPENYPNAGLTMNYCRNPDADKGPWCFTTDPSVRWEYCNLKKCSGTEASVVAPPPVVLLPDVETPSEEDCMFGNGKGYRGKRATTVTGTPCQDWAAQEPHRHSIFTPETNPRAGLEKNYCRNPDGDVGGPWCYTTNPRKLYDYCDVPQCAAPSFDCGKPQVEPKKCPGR
Outline: as §2

Human Thrombin = Human Thrombin (Homo sapiens, UniProt P00734); assay: biochemical; settings: read-out: Kass Human Thrombin (converted)
human or animal plasma [1] = assay: Anticoagulation determination in plasma: thrombin time (TT); assay type: biochemical; settings: concentration doubling thrombin time
Outline: (§3)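 Compounds spiked over a concentration range into citrated human, dog or rat plasma. PT used Thromboplastin-C; APTT used Actin reagent 120 s then 0.02 M CaCl2; TT used bovine thrombin 10 NIH units/mL. Concentration doubling clotting time estimated by linear extrapolation.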

in vivo = assay: in vivo; parameters: species or system rats; settings: for bioavailability: plasma, rat, oral vs i.v.; for % oral/i.v. activity (Rat): screening not completed, activity after p.o. dose given in the legend
From the text: Each sample population represented alternating sequential time points.

factor Xa = factor Xa (Homo sapiens, UniProt P00742); assay: biochemical; settings: read-out: Kass Xa (converted)
Chain of factor Xa (P00742 235-488 limits assumed): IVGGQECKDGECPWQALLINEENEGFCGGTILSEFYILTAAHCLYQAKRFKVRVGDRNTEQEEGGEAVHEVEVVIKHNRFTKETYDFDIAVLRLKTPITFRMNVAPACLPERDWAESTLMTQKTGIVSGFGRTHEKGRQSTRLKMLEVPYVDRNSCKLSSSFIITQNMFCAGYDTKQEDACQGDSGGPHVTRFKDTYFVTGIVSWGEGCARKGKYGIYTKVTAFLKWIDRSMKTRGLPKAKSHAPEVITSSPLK
Chain of factor Xa (P00742 41-179 partner limits assumed): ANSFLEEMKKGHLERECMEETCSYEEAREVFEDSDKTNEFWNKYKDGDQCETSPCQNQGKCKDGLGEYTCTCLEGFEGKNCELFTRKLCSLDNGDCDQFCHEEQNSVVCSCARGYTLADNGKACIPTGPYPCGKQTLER
Outline: as §1

human or animal plasma [2] = assay: Anticoagulation determination in plasma: prothrombin time (PT); assay type: biochemical; settings: concentration doubling prothrombin time
Outline: as §3

human or animal plasma [3] = assay: Anticoagulation determination in plasma: activated partial thromboplastin time (APTT); assay type: biochemical; settings: concentration doubling activated partial thromboplastin time
Outline: as §3
Wherever % oral/i.v. activity (Rat) is given: key: NC^1 indicates screening not completed; low or very low activity obsrved at 20 mg/kg p.o; NC^2 indicates screening not completed; low or very low activity observed at 60 mg/kg p.o; NC^3 indicates screening not completed; low or very low activity observed at 50 mg/kg p.o.

SMILES	Kd (Trypsin) [µM]	Kd (t-PA) [µM]	Kd (Plasmin) [µM]	Kd (Human Thrombin) [µM]	Kd (factor Xa) [µM]	% oral/i.v. activity (Rat) (in vivo)	Human Plasma Anticoagulation 2x Clotting time (ng/mL) TT (human or animal plasma [1])	bioavailability (in vivo) [%]	Human Plasma Anticoagulation 2x Clotting time (ng/mL) PT (human or animal plasma [2])	Human Plasma Anticoagulation 2x Clotting time (ng/mL) APTT (human or animal plasma [3])
CCS(=O)(=O)N[C@H](Cc1ccccc1)C(=O)N1CCC[C@H]1C(=O)NCCCCNC(=N)N [Example 1, EtS02-D-Phe-Pro-Agm·HCl]	2.63	12.2	100	0.303	588		250 ng/mL	8		
O=C(O)CN[C@H](CC1CCCCC1)C(=O)N1CCC[C@H]1C(=O)NCCCC1CCNCC1 [Example 55, HO2CCH2-D-Cha-Pro-4-NHCH2CH2CH2-piperidine·HCl]	100	> 1000	> 1000	100	> 1000		55,800 ng/mL		>91,000 ng/mL	>91,000 ng/mL
N=C(N)N1CCC(CNC(=O)[C@@H]2CCCN2C(=O)[C@@H](CC2CCCCC2)NCC(=O)O)CC1 [Example 56, HO2CCH2-D-Cha-Pro-4-NHCH2-1-amidinopiperidine·HCl]	0.278	> 1000	100	0.00204	5		5 ng/mL		200 ng/mL	160 ng/mL
N=C(N)N1CCC(CCNC(=O)[C@@H]2CCCN2C(=O)[C@@H](CC2CCCCC2)NCC(=O)O)CC1 [Example 57, HO2CCH2-D-Cha-Pro-4-NHCH2CH2-1-amidinopiperidine·HCl]	4.17	> 1000	100	0.0256	100		14 ng/mL		340 ng/mL	360 ng/mL
O=C(O)CN[C@H](CC1CCCCC1)C(=O)N1CCC[C@H]1C(=O)NCC1=CCNCC1 [Example 58, HO2CCH2-D-Cha-Pro-4-NHCH2-3,4-dehydro-piperidine·HCl]	2.5	> 1000	> 1000	1.67	> 1000		710 ng/mL		11,400 ng/mL	14,300 ng/mL
O=C(O)CN[C@H](CC1CCCCC1)C(=O)N1CCC[C@H]1C(=O)NCCC1=CCNCC1 [Example 59, HO2CCH2-D-Cha-Pro-4-NHCH2CH2-3,4-dehydro-piperidine·HCl]	4.76	> 1000	> 1000	0.909	> 1000		420 ng/mL		7,000 ng/mL	5,500 ng/mL
O=C(O)CN[C@H](CC1CCCCC1)C(=O)N1CCC[C@H]1C(=O)NCCCC1=CCNCC1 [Example 60, HO2CCH2-D-Cha-Pro-4-NHCH2CH2CH2-3,4-dehydro-piperidine·HCl]	33.3	> 1000	> 1000	4.17	> 1000		3,200 ng/mL		77,700 ng/mL	22,200 ng/mL
N=C(N)NCCCCNC(=O)[C@@H]1CCCN1C(=O)[C@@H]1NCC[C@H]2CCCC[C@H]21 [Example 61, N-[4-[(aminoiminomethyl)amino]butyl]-1-[[(4aR,8aR)-decahydro-1(R)-isoquinolinyl]carbonyl]-1-prolinamide trihydrochloride]	1	125	250	0.0159	33.3		45 ng/mL		756 ng/mL	679 ng/mL
Nc1ccc(CNC(=O)[C@@H]2CCCN2C(=O)[C@@H](CC2CCCCC2)NCC(=O)O)c(F)c1 [Example 64, HO2CCH2-D-Cha-Pro-4-NHCH2-3-F-C6H3NH2·HCl]				0.0667	100	NC^3	23 ng/mL		650 ng/mL	900 ng/mL
N=C(N)c1cc(F)c(CNC(=O)[C@@H]2CCCN2C(=O)[C@@H](CC2CCCCC2)NCC(=O)O)c(F)c1 [Example 72, HO2CCH2-D-Cha-Pro-4-NHCH2-3,5-F2-benzamidine·HCl]	0.00357			0.000435		NC^1	1 ng/mL		160 ng/mL	160 ng/mL

Continued, in another order:

Kd (Trypsin) [µM]	Kd (t-PA) [µM]	Kd (Plasmin) [µM]	Kd (Human Thrombin) [µM]	Kd (factor Xa) [µM]	% oral/i.v. activity (Rat) (in vivo)	SMILES	Human Plasma Anticoagulation 2x Clotting time (ng/mL) TT (human or animal plasma [1])	bioavailability (in vivo) [%]	Human Plasma Anticoagulation 2x Clotting time (ng/mL) PT (human or animal plasma [2])	Human Plasma Anticoagulation 2x Clotting time (ng/mL) APTT (human or animal plasma [3])
0.0526	130	10	0.1	10		N=C(N)c1ccc(CNC(=O)[C@@H]2C[C@@H]3CCCC[C@@H]3N2C(=O)[C@H]2CCCCN2)cc1 [Example 20, D-hPro-Ohi-p-NHCH2C6H4C(NH)NH2·3HCl]	62 ng/mL	23	600 ng/mL	550 ng/mL
4.76	100	100	0.0769	100	NC^1	CCS(=O)(=O)N[C@H](Cc1ccccc1)C(=O)N1CCC[C@H]1C(=O)NCCc1ccc(C(=N)N)cc1 [Example 26, EtSO2-D-Phe-Pro-p-NHCH2CH2-C6H4C(=NH)NH2·HCl]	37 ng/mL		750 ng/mL	870 ng/mL
0.0233	100	8.33	0.0263	14.3	NC^2	N=C(N)c1ccc(CNC(=O)[C@@H]2C[C@@H]3CCCC[C@@H]3N2C(=O)[C@@H]2NCC[C@@H]3CCCC[C@@H]32)cc1 [Example 42, D-1-Piq-cis-Ohi-p-NHCH2C6H4C(NH)NH2·2HCl]	20 ng/mL		320 ng/mL	270 ng/mL
0.00909	1.3	0.909	0.00164	0.667	NC^2	CCS(=O)(=O)N[C@H](Cc1ccccc1)C(=O)N1[C@H](C(=O)NCc2ccc(C(=N)N)cc2)C[C@@H]2CCCC[C@@H]21 [Example 45, EtSO2-Phe-cis-Ohi-p-NHCH2C6H4C(NH)NH2·HCl]	8 ng/mL		330 ng/mL	200 ng/mL
0.0122	100	5.56	0.0222	25	NC^2	N=C(N)c1ccc(CNC(=O)[C@@H]2C[C@@H]3CCCC[C@@H]3N2C(=O)[C@@H](Cc2ccccc2)NCC(=O)O)cc1 [Example 47, HOOCCH2-D-Phe-cis-Ohi-p-NHCH2C6H4C(NH)NH2·HCl]	12. ng/mL		270 ng/mL	140 ng/mL
0.00106	25	1.19	0.0025	0.294	NC^2	N=C(N)c1ccc(CNC(=O)[C@@H]2C[C@@H]3CCCC[C@@H]3N2C(=O)[C@@H](CC2CCCCC2)NCC(=O)O)cc1 [Example 49, HOOCCH2-D-Cha-cis-Ohi-p-NHCH2C6H4C(NH)NH2·HCl]	5 ng/mL		130 ng/mL	130 ng/mL
0.00417			0.000714		NC^1	N=C(N)c1ccc(CNC(=O)[C@@H]2CCCN2C(=O)[C@@H](CC2CCCCC2)NCC(=O)O)c(F)c1 [Example 71, HO2CCH2-D-Cha-Pro-4-NHCH2-3-F-benzamidine·HCl]	1 ng/mL		150 ng/mL	89 ng/mL

— patent publication EP0672658B1, “Antithrombotic agents” (priority 1994, dated 1995)
